Data published in patent publication US20260137745A1, “QUERCETAGETIN ENRICHED MARIGOLD EXTRACTS, COMPOSITIONS, METHODS OF PREPARATION AND USE THEREOF” (AVT NATURAL PRODUCTS LTD., priority 2022, published 2026).
≈ marks a conversion by molar mass, not a printed value. Like-named read-outs stand apart in the source and are kept apart here.

How the values were obtained:
[1] = tested on: Human Adult Epidermal Melanocytes (HAEM); assay: Cellular melanin inhibition assay; format: cell-based; conditions: Melanocyte, read-out: melanin inhibition IC50
Protocol: Cellular melanin inhibition assay is a cell-based assay designed for measuring Melanin inhibition in Human Adult Epidermal Melanocytes (HAEM). Darkly pigmented melanocytes were treated with test samples and incubated for 72 hrs. Post incubation, melanin was extracted and measured at an absorbance of 490 nm to evaluate the non-cytotoxic concentration of test sample (i.e. composition with QG40 extract; the composition with QG90 extract and composition with quercetin) for melanin inhibition.

[2] = tested on: Keratinocyte (HACAT) cells; assay: Cellular ROS Assay; format: cell-based; conditions: Homo sapiens, DCF-DA probe, flow cytometry, read-out: ROS inhibition IC50
Protocol: The Cellular ROS Assay is a cell-based assay designed for measuring Reactive Oxygen Species activity within a cell using the cell-permeable fluorogenic probe 2′. 7′-Di chloro dihydro fluorescein diacetate (DCF-DA). […] ROS induces the modification of carboxy-H2DCFDA that fluoresces green as detected by flow cytometry. ROS inhibition was evaluated for the composition with QG40 extract; the composition with QG90 extract and composition with quercetin.

[3] = Oxygen Radical Absorbance Capacity (ORAC) assay; format: biochemical; conditions: higher is better
Protocol: The Oxygen Radical Absorbance Capacity (ORAC) assay is a method that measures the antioxidant capacity of a substance. The ORAC assay measures a fluorescent signal from a probe that is quenched in the presence of Reactive Oxygen Species (ROS). […] In accordance with this protocol, ORAC assay was evaluated (using known protocols) for the composition comprising QG40 extract; the composition comprising QG90 extract and compared the same with composition comprising quercetin. […] Higher the ORAC value, means better performance by the composition.

DPPH Antioxidant Assay = format: biochemical; conditions: lower is better
Protocol: DPPH assay is considered a valid accurate and easy method to evaluate radical scavenging activity of antioxidants. DPPH [1,1-diphenyl-2-picryl hydrazyl] is a stable free radical with purple color. Antioxidants reduce DPPH to 1,1-diphenyl-2-picryl hydrazine, a color less compound which is measured at an absorbance of […]. This is an accepted mechanism for screening the antioxidant activity of plant extracts in a concentration dependent manner. Accordingly, the DPPH Antioxidant Assay was conducted as per known protocols for the compositions comprising QG40, and compositions comprising QG90, and Quercetin.

Row | IC50 ([1]; darkly pigmented melanocytes, 72 hrs incubation) [µg/mL] | Structure (SMILES) | IC50 [2] [µg/mL] | IC50 ([1]; 72 h) [µg/mL] | ORAC value [3] [m1\4 TE/g] | DPPH Scavenging activity (IC50) (DPPH Antioxidant Assay) [µg/mL]
1 | 25 (≈ 176 µM) | O=c1cc(CO)occ1O [Kojic acid] |  |  |  | 
2 |  | O.O.O=c1c(O)c(-c2ccc(O)c(O)c2)oc2cc(O)cc(O)c12 [Composition having Quercetin, Quercetin dihydrate] | 16.5 | 9.62 | 18.69 | 6.27
